Measured values reported in publication PMC6615598, “Novel antibiotics effective against gram-positive and -negative multi-resistant bacteria with limited resistance” (PLoS Biology, 2019).
Starred links: 1 amine or outer side, 2 acyl side, 3 side chain; linkers in the order of their positions; H or OH if unused. Non-standard residues stand in square brackets, D forms with d. Residues, ends and D or L forms follow the SMILES beside them. azaβ3(1Nal) = O=C(CN(Cc1cccc2ccccc12)N[*:1])[*:2]

Key:
P. aeruginosa LESB58 = details: LESB58
Experimental: (10−4 M final concentrations). At selected time intervals, 100 μl of reaction mixture was collected, quenched by 200 μl 95% EtOH, and adjusted at pH 2 to prevent peptide adsorption to serum proteins. […] Supernatants were analyzed by RP-HPLC on an Xbridge C18 column with a linear gradient of water, 0.08% TFA, and acetonitrile with 1% TFA. HPLC peak areas were used to calculate the percentages of intact compound remaining at the various time points. MIC and MBC values were determined in triplicate in many ESKAPE clinical isolates, including a dozen MDR S. aureus, by the broth microdilution method. Peptidomimetics and antibiotics were assayed in a concentration range of 1 to 128 μM. […] After every hour of culture for 4 h, serial dilutions were plated on BHI plates and incubated overnight at 37°C, and then the CFUs were counted and expressed as log CFU/ml. […]
For 15 d in MHB, MICs were determined daily for each pseudopeptide and their antibiotic controls. […] The suspension was diluted in MHB or CAMHB (10^6 cells/ml) and then used to determine the MIC of the same compound determined by micro broth dilution. […] To control compound stability, peptide solution MICs were determined during and at the end of the 15 d and were compared to cells unexposed to antibiotics. In vivo resistance was also assessed in treated mice (1.5 mg.kg^−1) for 4 d (sepsis) or 6 d (skin abscesses). […]

S. aureus 33845 = assay: microbe, parasite or virus in culture; details: 33845
MRSA (Mu3) = assay: microbe, parasite or virus in culture; details: 15 colonies
Experimental: For 15 d in MHB, MICs were determined daily for each pseudopeptide and their antibiotic controls. This was done using cells from the well in which the compound concentration was one-half of the MIC (1/2MIC). For each compound, the 1/2MIC well from the previous day’s MIC assay plate was re-suspended and the bacteria grown to a density of about 10^8 cells ml−1. The suspension was diluted in MHB or CAMHB (10^6 cells/ml) and then used to determine the MIC of the same compound determined by micro broth dilution. All MIC measurements were performed in duplicate. Aliquots of the 5 × 10^4 cell/ml dilutions for each 1/2MIC well were periodically plated on MHB and incubated at 35°C for 18 h to verify cell density by colony counts and for visual inspection of colony phenotypes. To control compound stability, peptide solution MICs were determined during and at the end of the 15 d and were compared to cells unexposed to antibiotics. In vivo resistance was also assessed in treated mice (1.5 mg.kg^−1) for 4 d (sepsis) or 6 d (skin abscesses). […] The broth microdilution method was performed as per EUCAST recommendations on 5 independent colonies per mouse (3 mice per set, 15 colonies per drug tested). For severe sepsis and subcutaneous abscesses, in vivo resistance was determined by plating aliquots of crude kidney extracts or abscesses on plates containing 1-, 2-, 4-, or 8-fold the peptide MICs 7 or 3 d post infections, respectively.

MRSA = assay: Severe sepsis mouse model, survival; format: in vivo; details: mice, approximately 2 × 10^9 CFUs MRSA IV; 4 IV doses of 0.5 mg.kg^−1 at 2, 24, 48, 72 h
Text: Tolerance and toxicity studies were done on male Swiss mice (CD-1 Crl: CD-1 [ICR] IGS; Charles River). These were 7 to 10 weeks old and weighed an average of 37.2 g. All experimental protocols were approved by the Adaptive Therapeutics Animal Care and Use Committee (APAFiS #4508-2016031l15541258 v2). For the sepsis model, we used female Swiss mice (Janvier Labs), 6 to 8 weeks old and weighing approximately 30 g. Experiments were monitored in the ARCHE-BIOSIT animal lab in Rennes, in biological duplicate. We used Groups of 5 mice for the mild and the severe sepsis models with MRSA. Mice were IV inoculated with 150 μl of MRSA suspensions in 0.9% NaCl containing approximately 5 × 10^8 CFUs for the “mild” sepsis and approximately 2 × 10^9 CFUs for the “severe” sepsis, respectively. […] Mice survival was monitored for 4 d (“severe” sepsis) or 14 d (“mild” sepsis), and the statistical significance of difference(s) between the groups was evaluated using the Wilcoxon test. P < 0.05 was considered significant. Two weeks (“mild” sepsis) or 4 d (“severe” sepsis) after inoculation, mice were euthanized with CO2.

E. coli ML-35p [1] = assay: Outer membrane permeability, nitrocefin cleavage; format: cell-based; details: concentration near MIC
Experimental: (§1) Outer and inner membrane permeability was determined on E. coli ML-35p, a lactose permease-deficient strain [8]. Permeation assays were carried out on 100 μl MHB from bacteria cultures grown to 0.15 OD600 (10^7 CFU/ml). Nitrocefin (20 μg/ml) was added to the tested molecules at a concentration near to their MICs, and cleavage was monitored by light absorption at 500 nm (outer membrane monitoring). Inner membrane monitoring of cleavage of ONPG (100 μg/ml) and substrate was monitored at 420 nm. Polymyxin B was a positive control, while a bacterial suspension in MHB was the negative control. Permeation assays were also performed on gram-positive S. aureus membranes (MSSA and MRSA) by fluorescence assay with SYTO Green nucleic acid stain (Life Technologies) in black flat-bottom 96-well microtiter plates (Greiner) in biological triplicate. Bacteria were grown to 0.3–0.4 OD600 in CAMHB at 37°C and centrifuged at 3,500 tr/min for 10 min. The pellet was washed and dissolved in PBS to an absorbance of 0.4 at 600 nm (approximately 2.10^8 CFU/ml). […] The amount of 50 μL of bacteria/SYTO Green mixture was added to each well containing compounds serially diluted in PBS, and fluorescence was measured at 37°C for up to 12 h using a spectrophotometer (BIOTEK, Tungsten-Halogen Lamp) with 485 nm excitation and 525 nm emission wavelengths.

E. coli ML-35p [2] = assay: Inner membrane permeability, ONPG cleavage; format: cell-based; details: concentration near MIC
Experimental: as §1

SMILES: CC(C)[C@@H]1NC(=O)[C@H](CCCNC(=N)N)NC(=O)[C@H](CCCNC(=N)N)NC(=O)CN(Cc2cccc3ccccc23)NC(=O)[C@H](Cc2ccccc2)NC(=O)CN(Cc2cccc3ccccc23)NC(=O)[C@H](CCCCN)NC1=O [Pep19] (cyclo([azaβ3(1Nal)]F[azaβ3(1Nal)]RRVK))
- MIC (P. aeruginosa LESB58): 4 µM
- MIC (S. aureus 33845): 16 mg/L^-1
- MIC (MRSA (Mu3); MRSA colonies from kidneys of septic mice, d4, single IV 1.5 mg.kg^−1 at 3 h or 15 h): 8 (8.8) μM
- MIC (MRSA (Mu3); MRSA colonies from mice skin abscess, d6, single IV 1.5 mg.kg^−1 at 24 h): 16 (16.2) μM
- Survival in severe sepsis (MRSA): protected the infected animals
- Outer membrane permeation (E. coli ML-35p [1]): most active
- Inner membrane permeation (E. coli ML-35p [2]): most active
